Test results taken from patent US4380535A, “Enkephalin degrading enzyme inhibitors” (priority 1981, dated 1983).
Structures can show the parent of a compound that is named as a salt.

Legend:
opiate receptor = opiate receptor affinity, 3H-naloxone displacement in rat brain homogenate (modified Chang); format: binding; conditions: 3H-naloxone displacement (ID50) relative to morphine, with NaCl
[1] = tested on: enkephalin-degrading aminopeptidase; test: inhibition of brain enzyme degradation of 3H-Leu-enkephalin (solubilized rat brain membrane preparation, TLC); format: biochemical; conditions: 1.0×10^-3 M inhibitor, 5.0×10^-4 M 3H-Leu-enkephalin, 37° C., 1 hour; control 52%
Protocol: The ability of the compounds of the invention to inhibit the brain enzyme degradation of enkephalins was studied in the following test procedure.
Brain enzymes from rats are used in the procedure and for this purpose solubilized rat brain membrane preparation, prepared as follows, is used:
Brains from young male Charles River Co. rats were homogenized in 30 volumes 50 mM Tris pH 7.7 with a Polytron (Brinkmann). The homogenate was centrifuged at 50,000 x g for 15 min. The supernatant was discarded the pellet resuspended in 50 mM Tris pH 7.7 and centrifuged at 50,000 x g for 15 min. The resultant pellet was resuspended, centrifuged and washed 3 additional times as described above. The membrane pellet was solubilized by resuspension in 15 volumes 50 mM Tris pH 7.7, 1% Triton X-100 and incubation at 37° C. for 45 min. […]
This preparation is incubated at 37° C. for 1 hour in the presence of 5.0×10^-4 M ^3 H-Leu-enkephalin in 50 mM tris buffer and 1.0×10^-3 M of the inhibitor to be tested. […] Markers of Leu-enkephalin (LE), tyrosinge (T) and tyrosine-glycine-glucine (TGG) are run with all samples and the relevant areas are scraped into scintillation vials and counted. […]
When N-Me-Tyr-D-Cys-Gly-N-MePhe-Thz-NH2 is tested in this procedure, the percentage of hydrolysis poructs (analyzed by TLC of tagged Leu-enkephalin) is as follows: […]

[2] = tested on: phenylbenozquinone-induced writhing; test: phenylbenzoquinone-induced writhing test (modified Siegmund); format: in vivo; conditions: mice, subcutaneous administration, at 15 minutes; limits (10.9-29.7)
Protocol: Biol. Med., 95, 729-731 (1957). According to this procedure, test compound is administered at various doses to ten mice per dose level. The animals then receive intraperitoneal injection with 0.25 ml of the writhing agonist (a 0.02% solution of benzoquinone) 5 min before the beginning of a pre-selected, 10 min observation period. Typical observation periods include 10 to 20, 25 to 35, 40 to 50 and 55 to 65 min following administration of the test compound. The mice are observed during the observation period for the presence of an all-or-none writhing reaction.
If the compound is active, its dose response and ED50 value are determined according to the method of D. J. Finney (Statistical Methods in Biological Assay, Griffin and Co., London, 1964).

CN[C@@H](Cc1ccc(O)cc1)C(=O)N[C@H](CS)C(=O)NCC(=O)N(C)[C@@H](Cc1ccccc1)C(=O)N1CSC[C@H]1C(N)=O [N-Me-Tyr-D-Cys-Gly-N-MePhe-Thz-NH2, N^α -Methyl-L-tyrosyl-D-cysteinyl-glycyl-N-methyl-L-phenylalanyl-L-thiazolidine-4-carboxamide, acetate salt]
relative displacement potency as compared to morphine (1) (opiate receptor): 2.6
percentage of hydrolysis products: Tyr [1]: 14%
ED50 [2]: 18 mg/kg
